Here are results for seven compounds from ChEMBL document CHEMBL1201862, “PubChem BioAssay data set” (2004).

Among the test systems are 786-0; A498; HCC 2998; HL-60; HT-29; IGROV-1; LOX IMVI; MOLT-4; NCI-H226; NCI-H23; NCI-H460; NCI-H522; NCI/ADR-RES; OVCAR-4; RXF 393; SN12C; SNB-19; U-251; UACC-62.
Holding throughout (assay): NCI-60 cell line screen, 48 h

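In this assay, cells in 96-well plates receive the compound at five concentrations for 48 hours. Endpoints are linearly interpolated between the surrounding concentrations. GI50: concentration for 50% inhibition of growth.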 Activity calls are given as the source filed them. Rule as the data show it: active = GI50 up to about 1.1 µM and inactive = higher. Where only a bound is given, the exact number is not on record here.

Take `Oc1c(C(O)(c2ccccc2)c2ccc3ccccc3c2O)ccc2ccccc12`: the GI50 was 20 µM (inactive) in the assay on 786-0; 16.1 µM (inactive) in the assay on A498; 6.87 µM (inactive) in the assay with HCC 2998; 3.52 µM (inactive) in the assay on HL-60; 17 µM (inactive) with HT-29; 7.36 µM (inactive) with IGROV-1. In addition, the GI50 with LOX IMVI was 10.3 µM (inactive); with MOLT-4 it was 1.88 µM (inactive); in the assay on NCI-H226 it was 18.8 µM (inactive); in the assay with NCI-H23, 5.12 µM (inactive); in the assay on NCI-H460, 8.91 µM (inactive); in the assay on NCI-H522, 4.01 µM (inactive). Moreover, the GI50 in the assay on NCI/ADR-RES was 13.2 µM (inactive); in the assay on OVCAR-4, 8.93 µM (inactive); in the assay with RXF 393, 8.87 µM (inactive); in the assay on SN12C, 7.74 µM (inactive); in the assay on SNB-19 it was 14.2 µM (inactive); in the assay with U-251, 9.31 µM (inactive). In addition, the GI50 with UACC-62 was 10.6 µM (inactive).
On to `O=C(O)CCc1nc2c(n1-c1ccccc1)C(=O)c1ccccc1C2=O`, for which the GI50 with 786-0, in the assay on A498, in the assay with HCC 2998, in the assay with HL-60, with HT-29 and in the assay with IGROV-1 was > 100 µM (inactive) throughout. Besides, the GI50 in the assay on LOX IMVI was 70.5 µM (inactive); in the assay on MOLT-4, > 100 µM (inactive); with NCI-H226 it was > 100 µM (inactive); with NCI-H23, > 100 µM (inactive); with NCI-H460, > 100 µM (inactive); with NCI-H522, 38.5 µM (inactive). The GI50 with NCI/ADR-RES, with OVCAR-4, in the assay on RXF 393, with SN12C, in the assay with SNB-19 and in the assay on U-251 was > 100 µM (inactive) in each case. Also, in the assay with UACC-62, the GI50 was > 100 µM (inactive).
With `CCOc1ccc2nc(NC(=O)/C(CC(=O)CC(C3=C(O)c4ccccc4CC3=O)c3ccccc3)=N\O)sc2c1` (stereo not drawn), the GI50 with 786-0, in the assay on A498, with HCC 2998, with HL-60, in the assay with HT-29 and with IGROV-1 was > 100 µM (inactive) throughout. Moreover, the GI50 in the assay with LOX IMVI, in the assay on MOLT-4, in the assay on NCI-H226, in the assay on NCI-H23, in the assay on NCI-H460 and with NCI-H522 was > 100 µM (inactive) throughout. Also, the GI50 in the assay with NCI/ADR-RES, in the assay on OVCAR-4, in the assay with RXF 393, in the assay on SN12C, with SNB-19 and in the assay on U-251 was > 100 µM (inactive) each time. Besides, the GI50 in the assay with UACC-62 is > 100 µM (inactive).
As to `CC(C)C(C(=O)O)N1C(=O)c2ccccc2C1=O` (stereo not drawn), the GI50 with 786-0, with A498, in the assay with HCC 2998, with HL-60, in the assay on HT-29 and in the assay with IGROV-1 was > 100 µM (inactive) throughout. The GI50 with LOX IMVI, in the assay on MOLT-4, in the assay with NCI-H226, with NCI-H23, in the assay on NCI-H460 and in the assay with NCI-H522 was > 100 µM (inactive) each time. Moreover, the GI50 in the assay on NCI/ADR-RES, with OVCAR-4, in the assay on RXF 393, in the assay with SN12C, in the assay with SNB-19 and in the assay with U-251 was > 100 µM (inactive) throughout. In the assay on UACC-62, the GI50 is > 100 µM (inactive).
`O=C1CN2C(c3ccccc3)=NN(c3ccc([N+](=O)[O-])cc3)C2(c2ccccc2)c2cc(Cl)ccc2N1CC1CC1` (stereo not drawn): the GI50 with 786-0 is > 100 µM (inactive); in the assay with A498, > 100 µM (inactive); in the assay on HCC 2998, > 100 µM (inactive); with HL-60 it was < 0.01 µM (active); in the assay on HT-29, > 100 µM (inactive); with IGROV-1 it was > 100 µM (inactive). Besides, the GI50 in the assay on LOX IMVI is > 100 µM (inactive); with MOLT-4 it was 79.4 µM (inactive); in the assay on NCI-H226 it was > 100 µM (inactive); in the assay on NCI-H23, > 100 µM (inactive); with NCI-H460 it was > 100 µM (inactive); in the assay with NCI-H522 it was > 100 µM (inactive). In addition, the GI50 in the assay with NCI/ADR-RES, in the assay with OVCAR-4, with RXF 393, in the assay with SN12C, in the assay with SNB-19 and in the assay with U-251 was > 100 µM (inactive) in each case. Further, in the assay with UACC-62, the GI50 was > 100 µM (inactive).
`COc1cc(C2c3cc4c(cc3OC(O)C2C)OCO4)cc(OC)c1OC` (stereo not drawn): the GI50 is 0.507 µM (active) in the assay on 786-0; 0.483 µM (active) in the assay with A498; 0.61 µM (active) with HCC 2998; 0.172 µM (active) in the assay with HL-60; 0.346 µM (active) with HT-29; 0.553 µM (active) in the assay with IGROV-1. The GI50 with LOX IMVI was 0.69 µM (active); in the assay with MOLT-4, 0.473 µM (active); in the assay on NCI-H226, 0.708 µM (active); in the assay on NCI-H23, 0.59 µM (active); in the assay with NCI-H460 it was 0.355 µM (active); in the assay on NCI-H522, 0.207 µM (active). Further, the GI50 in the assay on NCI/ADR-RES is 0.214 µM (active); with OVCAR-4 it was 2.8 µM (inactive); in the assay with RXF 393, 0.244 µM (active); in the assay with SN12C it was 0.446 µM (active); with SNB-19, 0.434 µM (active); in the assay with U-251, 0.33 µM (active). Also, the GI50 in the assay with UACC-62 was 0.349 µM (active).
As for `CSC[C@H](NC(=O)COc1cccc2cnccc12)C(=O)NC(Cc1ccccc1)C(O)C(=O)N1CSC[C@H]1C(=O)NC(C)(C)C` (stereo partly drawn), the GI50 is 44.5 µM (inactive) in the assay with 786-0; 68.2 µM (inactive) with A498; > 100 µM (inactive) in the assay on HCC 2998; 33.8 µM (inactive) with HL-60; 33.7 µM (inactive) in the assay on HT-29; > 100 µM (inactive) in the assay on IGROV-1. The GI50 in the assay with LOX IMVI is 31.8 µM (inactive); in the assay with MOLT-4 it was 17.7 µM (inactive); with NCI-H226 it was > 100 µM (inactive); with NCI-H23 it was 82.4 µM (inactive); in the assay with NCI-H460, 38.9 µM (inactive); in the assay with NCI-H522, > 100 µM (inactive). For the same compound, the GI50 was > 100 µM (inactive) in the assay with NCI/ADR-RES; 57.5 µM (inactive) in the assay on OVCAR-4; 29.2 µM (inactive) with RXF 393; 84.7 µM (inactive) in the assay on SN12C; > 100 µM (inactive) with SNB-19; 95.3 µM (inactive) with U-251. In the assay with UACC-62, the GI50 was 57.3 µM (inactive).
